Experiment [1] can be described thus: Luminescence Cell-Based Dose Response HTS to Identify Activators of Luciferase Translation or Activity in H4 […] Cells. [Related pubchem assays: 1829 (Project Summary), 1814 (Primary HTS)]. Type of experiment: functional.
A further experiment deals with H4. In words: Luminescence Cell-Based Dose Response HTS to Identify Activators of 5'UTR Stem-Loop Driven Prion Protein mRNA Translation in H4 Neuroglioblastoma Cells. [Related pubchem assays: 1829 (Project Summary), 1814 (Primary HTS)]. Type of experiment: functional. The note with it: Homo sapiens.
The nature of experiment [2]: Luminescence Cell-Based Dose Confirmation HTS to Identify Activators of 5'UTR Stem-Loop Driven Alpha-Synuclein mRNA Translation in H4 Neuroglioblastoma Cells. [Related pubchem assays: 1829 (Project Summary), 1814 (Primary HTS)]. Type of experiment: functional.
Experiment [3] addresses T1, High affinity choline transporter 1 (Homo sapiens, UniProt Q9GZV3).
T1 sequence (Q9GZV3 whole entry): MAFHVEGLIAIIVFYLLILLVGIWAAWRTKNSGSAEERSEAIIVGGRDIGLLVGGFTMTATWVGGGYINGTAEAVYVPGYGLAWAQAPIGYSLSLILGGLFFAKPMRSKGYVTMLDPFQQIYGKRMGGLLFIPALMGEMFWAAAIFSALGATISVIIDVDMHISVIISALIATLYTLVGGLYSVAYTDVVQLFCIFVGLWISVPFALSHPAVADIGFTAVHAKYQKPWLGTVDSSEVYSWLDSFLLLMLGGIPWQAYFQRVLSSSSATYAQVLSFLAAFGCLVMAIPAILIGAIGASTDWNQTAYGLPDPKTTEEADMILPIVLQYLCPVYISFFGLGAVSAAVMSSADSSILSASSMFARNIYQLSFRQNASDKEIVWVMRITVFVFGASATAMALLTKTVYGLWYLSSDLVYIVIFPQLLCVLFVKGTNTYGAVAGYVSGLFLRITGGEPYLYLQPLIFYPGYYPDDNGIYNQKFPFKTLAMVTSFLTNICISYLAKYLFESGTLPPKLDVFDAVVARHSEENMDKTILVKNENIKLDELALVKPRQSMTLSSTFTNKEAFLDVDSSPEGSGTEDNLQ
In words: human choline transporter blockers, potency – cell-based, 10-point CRC, membrane potential dye, dose response (AID 588401).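 Note: membrane potential dye fluorescence of choline-evoked depolarization via CHT.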 Type of experiment: functional.

Experiment [4] addresses T1, High affinity choline transporter 1. In words: human choline transporter blockers, potency – cell-based, 5-point CRC, membrane potential dye, dose response (AID 504840). The format is functional.
Experiment [5] addresses T2, DNA dC->dU-editing enzyme APOBEC-3A (Homo sapiens, UniProt P31941). Briefly: SAR analysis of small molecule inhibitors of APOBEC3A DNA Deaminase via a fluorescence-based single-stranded DNA deaminase assay - Set 2. The format is functional. The note with it: read-out: IC50_Mean.
Experiment [6] deals with T3, DNA dC->dU-editing enzyme APOBEC-3G (Homo sapiens, UniProt Q9HC16). Briefly: inhibition of APOBEC3G ssDNA deamination – biochemical, fluorescence, single-stranded DNA substrate, SAR follow-up (AID 602136). The format is functional. The conditions noted are these: read-out: IC50_Mean.
T3 sequence (Q9HC16 whole entry): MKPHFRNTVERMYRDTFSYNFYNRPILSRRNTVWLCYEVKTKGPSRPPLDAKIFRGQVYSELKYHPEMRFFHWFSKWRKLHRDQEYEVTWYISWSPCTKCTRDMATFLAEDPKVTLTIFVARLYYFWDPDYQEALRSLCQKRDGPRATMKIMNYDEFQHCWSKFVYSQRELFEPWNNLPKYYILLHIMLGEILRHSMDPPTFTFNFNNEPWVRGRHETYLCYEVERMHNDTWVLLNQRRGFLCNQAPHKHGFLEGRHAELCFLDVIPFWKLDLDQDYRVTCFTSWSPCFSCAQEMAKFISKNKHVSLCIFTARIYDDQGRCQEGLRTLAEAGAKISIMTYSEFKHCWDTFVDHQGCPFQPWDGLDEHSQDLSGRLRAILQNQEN
Experiment [7] deals with T3, DNA dC->dU-editing enzyme APOBEC-3G. In words: SAR analysis of small molecule inhibitors of APOBEC3G DNA Deaminase via a fluorescence-based single-stranded DNA deaminase assay - Set 2. The format is functional. The conditions noted are these: read-out: IC50_Mean.
The target in experiment [8] is T2, DNA dC->dU-editing enzyme APOBEC-3A. Briefly: A3A deaminase inhibition for selectivity – biochemical, dose response (AID 504722). The format is functional.
Experiment [9] shares this target. In words: SAR analysis of small molecule inhibitors of APOBEC3A DNA Deaminase via a fluorescence-based single-stranded DNA deaminase assay. The format is functional. The conditions noted are these: read-out: IC50_Mean.
For experiment [10], the target named is T3, DNA dC->dU-editing enzyme APOBEC-3G. Briefly: Dose Response confirmation of small molecule APOBEC3G DNA Deaminase Inhibitors via a fluorescence-based single-stranded DNA deaminase assay. [Related pubchem assays (depositor defined):AID493012, AID493028]. The format is functional.
Experiment [11] addresses T4, Heat shock factor protein 1 (Mus musculus, UniProt P38532).
T4 sequence (P38532 whole entry): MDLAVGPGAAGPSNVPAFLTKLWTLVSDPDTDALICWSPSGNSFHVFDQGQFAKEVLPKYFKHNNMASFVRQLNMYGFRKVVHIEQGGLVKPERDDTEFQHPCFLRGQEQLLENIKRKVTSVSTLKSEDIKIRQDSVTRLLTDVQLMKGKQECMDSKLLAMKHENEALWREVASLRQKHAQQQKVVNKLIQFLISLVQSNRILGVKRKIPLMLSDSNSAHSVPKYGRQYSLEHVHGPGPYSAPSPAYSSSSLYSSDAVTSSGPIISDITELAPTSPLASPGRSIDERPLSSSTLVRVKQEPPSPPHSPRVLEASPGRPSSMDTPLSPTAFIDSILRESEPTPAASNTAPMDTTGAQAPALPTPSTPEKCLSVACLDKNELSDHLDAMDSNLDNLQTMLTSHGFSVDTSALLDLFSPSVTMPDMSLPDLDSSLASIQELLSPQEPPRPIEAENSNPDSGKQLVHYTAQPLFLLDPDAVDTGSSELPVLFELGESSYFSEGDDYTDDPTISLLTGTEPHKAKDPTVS
Briefly: decrease of HSF1-responsive luciferase luminescence – cell-based, NIH3T3, dose retest, confirmation (AID 2382).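 Note: NIH3T3 fibroblasts with HSF1-driven luciferase reporter stressed by proteasome inhibitor MG132; luminescence from HSF1-driven luciferase expression after 8 hours of MG132 stress.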 The format is functional.

Another experiment deals with Melanocortin receptor 4 (Homo sapiens, UniProt P32245). Type of experiment: functional, cell-based.
Melanocortin receptor 4, sequence (P32245 whole entry): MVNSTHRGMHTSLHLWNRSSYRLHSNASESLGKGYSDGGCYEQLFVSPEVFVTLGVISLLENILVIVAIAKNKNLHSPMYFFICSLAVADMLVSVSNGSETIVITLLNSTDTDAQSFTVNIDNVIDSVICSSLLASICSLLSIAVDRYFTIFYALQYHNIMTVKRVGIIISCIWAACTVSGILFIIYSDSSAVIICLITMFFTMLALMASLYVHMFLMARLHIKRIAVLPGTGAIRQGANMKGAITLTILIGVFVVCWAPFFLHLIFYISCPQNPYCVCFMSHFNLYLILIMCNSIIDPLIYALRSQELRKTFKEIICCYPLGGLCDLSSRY
In experiment [12] the target is T3, DNA dC->dU-editing enzyme APOBEC-3G. Type of experiment: functional.
Experiment [13] addresses T2, DNA dC->dU-editing enzyme APOBEC-3A. In words: Dose Response confirmation of small molecule APOBEC3A DNA Deaminase Inhibitors via a fluorescence-based single-stranded DNA deaminase assay. [Related pubchem assays (depositor defined):AID493011, AID493024]. The format is functional.
Experiment [14] deals with DNA (cytosine-5)-methyltransferase 1 (Homo sapiens, UniProt P26358). Briefly: inhibition of DNA methylation by DNMT1 – biochemical, fluorescent molecular beacon, confirmation (AID 602386). The format is functional.
DNA (cytosine-5)-methyltransferase 1, sequence (P26358 whole entry): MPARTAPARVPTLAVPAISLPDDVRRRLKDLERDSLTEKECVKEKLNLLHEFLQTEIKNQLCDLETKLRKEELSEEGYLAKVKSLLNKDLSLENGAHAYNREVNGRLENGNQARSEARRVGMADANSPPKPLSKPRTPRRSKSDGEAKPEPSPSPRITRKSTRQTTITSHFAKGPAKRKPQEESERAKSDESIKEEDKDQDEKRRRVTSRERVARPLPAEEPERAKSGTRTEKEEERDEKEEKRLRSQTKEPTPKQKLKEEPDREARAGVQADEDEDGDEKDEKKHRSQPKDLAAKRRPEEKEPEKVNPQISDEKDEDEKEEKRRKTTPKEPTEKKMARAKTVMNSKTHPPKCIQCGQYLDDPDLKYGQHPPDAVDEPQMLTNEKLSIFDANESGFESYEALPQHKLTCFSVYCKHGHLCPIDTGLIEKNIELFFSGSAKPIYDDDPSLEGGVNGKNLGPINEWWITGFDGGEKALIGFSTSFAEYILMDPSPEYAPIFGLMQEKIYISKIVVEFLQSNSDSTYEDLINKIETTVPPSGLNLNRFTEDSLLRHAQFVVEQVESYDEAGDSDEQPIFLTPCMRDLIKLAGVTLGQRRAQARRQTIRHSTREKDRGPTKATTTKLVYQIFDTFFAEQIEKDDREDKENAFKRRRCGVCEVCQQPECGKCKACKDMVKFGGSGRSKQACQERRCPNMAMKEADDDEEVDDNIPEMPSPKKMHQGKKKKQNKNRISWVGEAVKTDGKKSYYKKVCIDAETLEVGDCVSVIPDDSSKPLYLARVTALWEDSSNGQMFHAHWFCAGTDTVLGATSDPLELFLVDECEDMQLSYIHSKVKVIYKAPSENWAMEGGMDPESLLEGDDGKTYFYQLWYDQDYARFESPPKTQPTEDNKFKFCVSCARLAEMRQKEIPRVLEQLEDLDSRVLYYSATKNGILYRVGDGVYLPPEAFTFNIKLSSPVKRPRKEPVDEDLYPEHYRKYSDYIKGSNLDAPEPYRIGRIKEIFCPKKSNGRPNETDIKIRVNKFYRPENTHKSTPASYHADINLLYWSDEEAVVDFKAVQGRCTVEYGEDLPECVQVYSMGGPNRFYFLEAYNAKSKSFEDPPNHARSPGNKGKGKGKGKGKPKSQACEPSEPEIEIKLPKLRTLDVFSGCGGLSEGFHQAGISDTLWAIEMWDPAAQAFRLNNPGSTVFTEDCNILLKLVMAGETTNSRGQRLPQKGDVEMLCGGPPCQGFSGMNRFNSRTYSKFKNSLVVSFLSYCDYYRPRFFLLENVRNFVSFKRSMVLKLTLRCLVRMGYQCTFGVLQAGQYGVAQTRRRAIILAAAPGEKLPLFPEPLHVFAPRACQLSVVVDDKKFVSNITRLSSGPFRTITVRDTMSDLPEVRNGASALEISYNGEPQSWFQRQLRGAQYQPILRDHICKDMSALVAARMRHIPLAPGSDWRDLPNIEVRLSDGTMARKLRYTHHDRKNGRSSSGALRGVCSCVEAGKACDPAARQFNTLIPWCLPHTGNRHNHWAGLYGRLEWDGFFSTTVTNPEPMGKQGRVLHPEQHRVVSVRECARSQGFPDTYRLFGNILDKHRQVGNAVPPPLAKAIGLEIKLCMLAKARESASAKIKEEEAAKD
Experiment [15] deals with T5, Rac GTPase-activating protein 1 (Homo sapiens, UniProt Q9H0H5).
T5 sequence (Q9H0H5 whole entry): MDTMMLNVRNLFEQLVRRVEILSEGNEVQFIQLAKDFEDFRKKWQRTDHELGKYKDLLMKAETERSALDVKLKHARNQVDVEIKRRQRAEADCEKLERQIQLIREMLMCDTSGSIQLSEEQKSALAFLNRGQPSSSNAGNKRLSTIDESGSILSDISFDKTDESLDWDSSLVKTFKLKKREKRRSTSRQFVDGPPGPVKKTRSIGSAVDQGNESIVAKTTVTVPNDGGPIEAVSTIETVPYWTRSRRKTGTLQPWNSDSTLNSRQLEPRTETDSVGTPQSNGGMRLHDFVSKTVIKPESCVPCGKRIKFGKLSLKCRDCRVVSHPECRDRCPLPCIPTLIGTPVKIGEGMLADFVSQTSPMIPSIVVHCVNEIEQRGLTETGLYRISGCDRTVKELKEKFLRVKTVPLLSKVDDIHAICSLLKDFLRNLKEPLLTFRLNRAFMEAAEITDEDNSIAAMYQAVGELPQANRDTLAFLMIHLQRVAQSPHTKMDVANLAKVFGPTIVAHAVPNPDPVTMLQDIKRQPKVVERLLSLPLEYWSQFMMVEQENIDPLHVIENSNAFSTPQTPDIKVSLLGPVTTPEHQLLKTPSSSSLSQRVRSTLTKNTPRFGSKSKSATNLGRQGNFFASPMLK
In words: blockers of MgcRacGAP-driven Rac1 GTP hydrolysis – biochemical, ADP Hunter fluorescence, primary and confirmatory, confirmation (AID 624330). Type of experiment: functional.

Experiment [16] addresses T6, Carboxy-terminal domain RNA polymerase II polypeptide A small phosphatase 1 (Homo sapiens, UniProt Q9GZU7).
T6 sequence (Q9GZU7 whole entry): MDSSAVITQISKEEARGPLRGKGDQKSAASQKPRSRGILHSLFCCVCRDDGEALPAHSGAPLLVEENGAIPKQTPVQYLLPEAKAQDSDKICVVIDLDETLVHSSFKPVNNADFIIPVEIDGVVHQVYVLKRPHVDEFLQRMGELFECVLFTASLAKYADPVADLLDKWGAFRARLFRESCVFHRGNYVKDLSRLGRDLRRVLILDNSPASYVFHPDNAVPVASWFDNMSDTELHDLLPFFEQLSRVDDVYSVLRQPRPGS
Briefly: CTDSP1 inhibitors, concentration-response, biochemical, absorbance readout, ultra-high-throughput screen actives (AID 540297). Type of experiment: functional.

Experiment [17] addresses T7, Apoptotic protease-activating factor 1 (Homo sapiens, UniProt O14727).
T7 sequence (O14727 whole entry): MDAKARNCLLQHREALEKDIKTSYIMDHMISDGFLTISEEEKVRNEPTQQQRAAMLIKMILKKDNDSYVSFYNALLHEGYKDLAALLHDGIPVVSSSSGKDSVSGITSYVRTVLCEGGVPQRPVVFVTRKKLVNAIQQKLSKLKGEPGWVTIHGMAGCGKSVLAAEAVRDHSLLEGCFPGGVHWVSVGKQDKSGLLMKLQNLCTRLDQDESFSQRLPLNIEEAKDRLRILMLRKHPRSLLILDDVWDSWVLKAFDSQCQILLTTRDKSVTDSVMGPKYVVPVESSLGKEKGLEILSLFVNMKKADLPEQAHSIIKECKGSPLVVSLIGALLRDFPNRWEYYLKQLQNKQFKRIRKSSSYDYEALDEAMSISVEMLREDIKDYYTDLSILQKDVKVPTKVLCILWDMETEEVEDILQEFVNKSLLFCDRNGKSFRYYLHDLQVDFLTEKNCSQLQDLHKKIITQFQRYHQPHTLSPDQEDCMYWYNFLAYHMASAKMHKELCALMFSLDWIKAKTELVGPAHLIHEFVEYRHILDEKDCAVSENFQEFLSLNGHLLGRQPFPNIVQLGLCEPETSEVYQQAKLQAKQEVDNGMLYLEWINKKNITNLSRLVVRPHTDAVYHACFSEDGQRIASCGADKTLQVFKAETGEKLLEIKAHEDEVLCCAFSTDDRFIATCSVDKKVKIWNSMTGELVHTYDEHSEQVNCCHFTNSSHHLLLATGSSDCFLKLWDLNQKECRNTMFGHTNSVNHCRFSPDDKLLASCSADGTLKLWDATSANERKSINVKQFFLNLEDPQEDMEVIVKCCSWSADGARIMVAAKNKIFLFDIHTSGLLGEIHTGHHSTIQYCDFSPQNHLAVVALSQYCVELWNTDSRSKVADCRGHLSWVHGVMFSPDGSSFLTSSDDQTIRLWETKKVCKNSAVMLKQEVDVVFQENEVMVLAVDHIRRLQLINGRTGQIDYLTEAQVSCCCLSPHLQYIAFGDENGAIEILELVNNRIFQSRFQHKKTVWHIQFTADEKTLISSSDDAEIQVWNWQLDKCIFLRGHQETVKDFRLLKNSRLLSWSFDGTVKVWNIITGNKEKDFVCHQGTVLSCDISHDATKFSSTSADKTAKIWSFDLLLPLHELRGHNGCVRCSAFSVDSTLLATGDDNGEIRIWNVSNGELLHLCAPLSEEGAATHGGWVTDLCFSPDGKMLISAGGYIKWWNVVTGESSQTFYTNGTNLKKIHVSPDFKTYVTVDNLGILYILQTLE
In words: SAR analysis of small molecule Activators of Apaf-1 in a Fluorescent assay. The format is functional. The conditions noted are these: read-out: EC50_Mean.

Values joined by “and” are separate entries in the source; they are usually repeats but may differ in a detail not shown here. Identical values can stand only once. Active and inactive are the calls of the source.
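Throughout, for EC50 Mean: caspase-3 cleavage of fluorogenic Rh110 DEVD substrate downstream of apoptosome activation.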

T2 sequence (P31941 whole entry): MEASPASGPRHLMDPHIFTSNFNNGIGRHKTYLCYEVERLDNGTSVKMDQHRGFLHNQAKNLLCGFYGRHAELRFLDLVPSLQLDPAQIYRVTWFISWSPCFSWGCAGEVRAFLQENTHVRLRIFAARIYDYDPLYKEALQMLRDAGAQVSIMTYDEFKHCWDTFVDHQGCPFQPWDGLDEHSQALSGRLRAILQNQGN

Turning to `O=C1NN(c2ccccc2)C(=O)/C1=C/c1coc2ccccc2c1=O`, the EC50 in experiment [1] is 44.7 µM (active); with H4, 13.4 µM (active); in experiment [2], 14.5 µM (active). For the same compound, the IC50 in [3] was 1.27 µM (active); in [4] it was 5.3 µM (active).

Consider `Nn1c(-c2cccc(Br)c2)n[nH]c1=S`, for which the IC50 is > 99 µM (inactive) in experiment [5]; 0.55 µM (active) in experiment [6]; 539 nM (active) in experiment [7]; > 100 µM (inactive) in experiment [8]; > 99 µM (inactive) in experiment [9]; 1.45 µM (active) in experiment [10]. Moreover, in experiment [11], the EC50 was 108 µM (active).

Regarding `Cc1ccc(NC(=O)c2ccccc2OCC(=O)c2ccc(F)cc2)cc1`, at Melanocortin receptor 4, the EC50 was > 89.2 µM (inactive).

Take `CCn1ncc(-c2ccnc3cc(C(=O)O)nn23)c1C`: the IC50 in [12] was > 100 µM (inactive); in experiment [5], 16.4 µM (inactive) and 24.7 µM (inactive); in experiment [6], > 99 µM (inactive); in experiment [7], 93 µM (inactive) and 69.6 µM (inactive); in experiment [9], 10.7 µM (inactive); in experiment [13], 3.82 µM (active).

Turning to `C=CCNc1nc(SC)nc2ccsc12`, the results for the IC50 in [3] and in experiment [4] were 0.891 µM (active) and 1.73 µM (active), respectively.

On to `CCc1ccc(/C(C)=N/NC(=O)CNC(=O)/C=C/c2ccco2)cc1`, for which the IC50 in experiment [14] was 6.95 µM (active); in [15], 106 µM (active); in experiment [16] it was 0.844 µM (active).

Regarding `COc1ccc(OC)c(NC(=O)CC(C)S(=O)(=O)c2ccc3c(c2)CCN3C(C)=O)c1` (stereo unspecified), the EC50 in [17] is > 100 µM (inactive).

As for `COC(=O)[C@@H]1COC(c2ccccc2C(F)(F)F)=N1`, the EC50 in experiment [17] is > 100 µM (inactive).

The record behind these values is ChEMBL document CHEMBL1201862, “PubChem BioAssay data set” (2004).
